Results: patent publication US20250011347A1, “NOVEL PLASMALOGEN DERIVATIVE” (Institute of Rheological Function of Food Co., Ltd., priority 2021, published 2025)
“Also recorded” adds a separate entry of the source.

Legend:
[1] = tested on: p65 (NFkB); assay: LPS-induced p65 nuclear accumulation in BV2 microglial cells (Western blotting); assay type: cell-based, mouse; conditions: compound 5 μg/ml 12 hours, then LPS 1 μg/ml 2 hours, FIG. 2
Procedure: (§1) Mouse microglial cells (BV2) were cultured using a DMEM medium containing 2% FBS (fetal bovine serum) for 12 hours under conditions with or without the addition of the compound of the present invention, KIT-008 or KIT-020 (5 μg/ml). Thereafter, it was treated with LPS (1 μg/ml) for 2 hours, proteins in the cell nucleus were extracted, and p65 (NFkB) protein expression was detected by Western blotting using NF-κB p65 (Cell Signaling Technology, the clone name: D14E12) as a primary antibody and Anti-Rabbit IgG HRP-linked antibody (Cell Signaling Technology) as a secondary antibody.

[2] = tested on: amyloid beta (Aβ) deposition in hippocampal tissue; assay: LPS-induced amyloid beta (Aβ) deposition in mouse hippocampal tissue (immunohistochemistry); assay type: in vivo; conditions: c57BL6J mice hippocampal tissue, 10 mg/50 kg/day in drinking water 4 weeks, then LPS 10 days; FIG. 13, 14
Procedure: Specifically, 8-week-old male c57BL6J mice were allowed to drink each of the compounds of the present invention (KIT-008 and KIT-020) at a dose of 10 mg/50 kg/day for 4 weeks, and were then subjected to LPS treatment (200 mg/kg/day) for 10 days while allowing them to drink the compound in the same manner. The mouse hippocampal tissue was subjected to an immunohistochemistry test using an anti-amyloid beta antibody (a cocktail of two antibodies, 6E10 (BioLegend) and 82E1 (Immuno-Biological Laboratories Co, Ltd)). DAPI was used to stain a cell nucleus. In FIG. 13, the scale bar is 100 μm and the arrows indicate amyloid beta that deposited. The data in FIG. 14 represent the average number of amyloid beta deposition in each group (3 mice, n=3). In the LPS group, amyloid beta deposition was observed compared to the control group, but in the KIT-008 group and the KIT-020 group, amyloid beta deposition caused by LPS was suppressed.

[3] = tested on: lysosomes in mouse neurons Neuro2a (N2a); assay: Impaired lysosomal acidification in Neuro2a neurons induced by culture supernatant of LPS-treated BV2; assay type: cell-based; conditions: N2a cells, compound 24 hours, then 24 hours in supernatant of LPS-treated BV2 with compound; LysoTracker Red; FIG. 10
Procedure: Lysosomes in mouse neurons Neuro2a (N2a) cultured in a normal DMEM medium were labeled with LysoPrime Green (Dojindo). LysoPrime Green is a fluorescent dye that is highly specific for lysosomes which are acidic organelles and that is resistant to pH changes.
Then, N2a is cultured in the culture supernatant of mouse glial cells BV2 treated with the endotoxin lipopolysaccharide (LPS) (1 μg/ml, 18 h) or the culture supernatant of untreated BV2, and labeled with LysoTracker™ Red DND-99 (Thermo Fisher Scientific) which targets acidic organelles.
That is, it was shown that acidification of the lysosomes in the neurons were impaired by glial cell-derived factors in the medium resulting from inflammation.
Each of the compounds of the present invention, KIT-008, KIT-019 and KIT-020 was added to the medium of N2a cells and cultured for 24 hours, and then cultured for another 24 hours in the culture supernatant of BV2 administered with LPS in the presence of each compound.

[4] = tested on: inflammatory cytokine IL-1β; assay: LPS-induced IL-1β expression in BV2 microglial cells (semi-quantitative PCR); assay type: cell-based, mouse; conditions: compound 5 μg/ml 12 hours, then LPS 1 μg/ml 2 hours, FIG. 1
Procedure: Mouse microglial cells (BV2) were cultured using a DMEM medium containing 2% FBS (fetal bovine serum) for 12 hours under conditions with or without the addition of the compound of the present invention, KIT-008 (5 μg/ml). Thereafter, the cells were treated with LPS (1 μg/ml) for 2 hours, and intracellular RNAs were extracted with an RNA extraction kit (TRI Reagent, Molecular Research Center Inc.), and the expression of an inflammatory cytokine IL-1β and the RNA expression of the Gapdh gene as a control were detected by semi-quantitative PCR (TaKaRa PrimeScript 1st strand cDNA synthesis Kit, TAKARA BIOTECHNOLOGY Co., LTD.).

[5] = tested on: c57BL6J mice; assay: Water maze test of mice with LPS-induced memory impairment; assay type: in vivo, mouse; conditions: 10 mg/50 kg/day in drinking water 4 weeks, then LPS 7 days, Trial 6, P<0.05, FIG. 12
Procedure: Specifically, 8-week-old male c57BL6J mice (5 mice in each group, n=5) were allowed to drink each of the compounds of the present invention (KIT-008 and KIT-020) at a dose of 10 mg/50 kg/day for 4 weeks, and were then subjected to LPS treatment (200 mg/kg/day) for 7 days while allowing them to drink the compound in the same manner. Thereafter, they were subjected to a water maze test for 2 days (3 trials per day).
Escape Latency indicates the time required to arrive at an escape platform (arrival time). Comparisons between groups were performed by ANOVA test and Bonferroni's post hoc test. […] Therefore, the compounds of the present invention are effective in improving brain function (cognitive function).

[6] = tested on: amyloid beta (Aβ) in N2a cells; assay: Amyloid beta (Aβ) accumulation in lysosomes of CFPAPPsw-expressing N2a cells; assay type: cell-based, mouse; conditions: N2a cells expressing CFPAPPsw in LPS-treated BV2-derived medium, pretreatment with compound; antibody 6E10; FIG. 11
Description: A plasmid having cDNA encoding CFPAPPsw (CFPAPPsw that fuses a fluorescent protein CFP to the N-terminus of an amyloid precursor protein (APPsw) having a Swedish-type amino acid substitution that is easily cleaved by BACE) was expressed in N2a cells, and localization of amyloid beta (Aβ) in the N2a cells in an untreated mouse glial cell BV2 culture supernatant (−LPS), in the N2a cells in LPS-treated BV2 culture supernatant (LPS-treated BV2-derived medium), and in the N2a cells administered with KIT-008 was verified using an antibody 6E10 (BioLegend) that recognizes the Aβ portion.

[7] = tested on: MeCP2-deficient mice; assay: Survival (lifetime) of MeCP2-deficient mice; assay type: in vivo, mouse; conditions: male MeCP2-deficient mice from 4 weeks old, 20 ng/g body weight in drinking water twice a week
Procedure: Four-week-old male MeCP2-deficient mice were used in the experiment. The MeCP2-deficient mice were divided into two groups: a KIT-008 administration group (KO-KIT-008, n=13) and a control group (KO-All, n=28). The body weight of each of the mice in the administration group was measured in advance. The compound KIT-008 was suspended in water by sonication so that KIT-008 was ingested at 20 ng/g body weight, and it was continuously administered in drinking water to each mouse twice a week to verify its survival. The control group was given only water in the same manner.

[8] = tested on: microglia (Iba1-positive cells) and astrocytes (GFAP-positive cells) in hippocampal tissue; assay: LPS-induced amoeboid shaped microglia and astrocytes increase in mouse hippocampal tissue (immunohistochemistry); assay type: in vivo; conditions: c57BL6J mice hippocampal tissue, 10 mg/50 kg/day in drinking water 4 weeks, then LPS 10 days; for LPS-induced amoeboid shaped astrocytes (GFAP-positive cells) increase / LPS-induced amoeboid shaped microglia (Iba1-positive cells) increase: FIG. 17, 18; for LPS-induced astrocytes (GFAP-positive cells) increase (number): FIG. 18 lower graph
Procedure: Specifically, 8-week-old male c57BL6J mice were allowed to drink each of the compounds of the present invention (KIT-008 and KIT-020) at a dose of 10 mg/50 kg/day for 4 weeks, and were then subjected to LPS treatment (200 mg/kg/day) for 10 days while allowing them to drink the compound in the same manner. The mouse brain tissue was subjected to an immunohistochemistry (IHC) study using Iba1 (a microglia marker, Fujifilm 019-19741) and GFAP (an astrocyte marker, Sigma C9205). DAPI was used to stain a cell nucleus. In FIG. 17, the scale bar is 100 μm. The data in FIG. 18 represent the percentages of amoeboid shaped microglia and amoeboid shaped astrocytes (upper graphs) and the number of astrocytes (GFAP-positive cells) (a lower graph) in each group (3 mice, n=3). In the LPS group, the amoeboid shaped microglia (Iba1-positive cells) and the amoeboid shaped astrocytes (GFAP-positive cells) increased compared to the control group. In addition, the astrocytes (GFAP-positive cells) increased. However, in the KIT-008 group and the KIT-020 group, the LPS-induced amoeboid shaped microglia (Iba1-positive cells) increase and amoeboid shaped astrocytes (GFAP-positive cells) increase and astrocytes (GFAP-positive cells) increase were suppressed.

[9] = tested on: inducible nitric oxide synthase (iNOS); assay: LPS-induced iNOS expression in mouse hippocampal tissue (immunohistochemistry); assay type: in vivo; conditions: c57BL6J mice hippocampal tissue, 10 mg/50 kg/day in drinking water 4 weeks, then LPS 10 days; FIG. 15, 16
Procedure: Specifically, 8-week-old male c57BL6J mice were allowed to drink each of the compounds of the present invention (KIT-008 and KIT-020) at a dose of 10 mg/50 kg/day for 4 weeks, and were then subjected to LPS treatment (200 mg/kg/day) for 10 days while allowing them to drink the compound in the same manner. The mouse brain tissue was subjected to an immunohistochemistry (IHC) study using an anti-NeuN antibody (a neuron marker, Millipore MAB377) and an anti-iNOS antibody (an inflammatory marker, Invitrogen PA1-036). DAPI was used to stain a cell nucleus.
In FIG. 15, the scale bar is 50 μm and the arrows indicate iNOS-positive neurons. The data in FIG. 16 represents the average value for each group (3 mice, n=3). In the LPS group, the number of iNOS-positive neurons increased compared to that in the control group, but in the KIT-008 group and the KIT-020 group, the increase in iNOS-positive neurons caused by LPS was suppressed.

[10] = tested on: p65 (NFkB); assay: LPS-induced p65 nuclear accumulation in MG6 microglial cells (Western blotting); assay type: cell-based, mouse; conditions: compound 5 μg/ml 24 hours, then LPS 1 μg/ml 8 hours, FIG. 3
Procedure: as §1, with “cells (MG6)” for “cells (BV2)”, “for 24” for “for 12”, “invention, KIT-019” for “invention, KIT-008”, “for 8” for “for 2”

[11] = tested on: IL-1β protein; assay: LPS-induced secreted IL-1β protein in MG6 microglial cells (ELISA); assay type: cell-based, mouse; conditions: compound 5 μg/ml 24 hours, then LPS 1 μg/ml 8 hours, ELISA of culture medium, FIG. 4
Procedure: Five-thousand mouse microglial cells (MG6) were cultured in a 96-well dish containing 100 μl of a DMEM medium containing 2% FBS (fetal bovine serum). Then, 5 μg/ml of each of the compounds of the present invention, KIT-019 and KIT-020 was added and cultured for 24 hours. Thereafter, it was treated with LPS (1 μg/ml) for 8 hours. The culture medium was collected, and the secreted IL-1β protein was measured by ELISA using DuoSet Mouse IL-1β (R&D Systems).

Compound | LPS-induced p65 nuclear accumulation [1] | amyloid beta deposition caused by LPS [2] | impaired acidification of lysosomes in neurons caused by glial cell-derived factors [3] | LPS-induced inflammatory cytokine IL-1β expression [4] | memory retention (Escape Latency) compared to the LPS group [5] | accumulation of Aβ in lysosomes [6] | survival rate compared with MeCP2-deficient mice not administered ([7]; FIG. 5) | number of days until the survival rate reached 50% ([7]; control group 64.5 days) [days] | LPS-induced amoeboid shaped astrocytes (GFAP-positive cells) increase [8] | LPS-induced amoeboid shaped microglia (Iba1-positive cells) increase [8] | LPS-induced astrocytes (GFAP-positive cells) increase (number) [8] | increase in iNOS-positive neurons caused by LPS [9] | LPS-induced p65 nuclear accumulation [10] | LPS-induced inflammatory cytokine IL-1β protein expression [11]
CC/C=C\C/C=C\C/C=C\C/C=C\C/C=C\C/C=C\CCC(=O)O[C@H](COC/C=C/CCCCCCCCCCCCCCC)COP(=O)(O)OCCN [KIT-008, 2-((((R)-2-(((4Z,7Z,10Z,13Z,16Z,19Z)-docosa-4,7,10,13,16,19-hexenoyl)oxy)-3-(((E)-octadec-2-en-1-yl)oxy)propoxy)(hydroxy)phosphoryl)oxy)ethane-1-ammonium 2,2,2-trifluoroacetate] | suppressed | suppressed | ameliorated; also recorded: highest effect | reduced | improvement in memory retention | eliminated | higher | 78 | suppressed | suppressed | suppressed | suppressed |  | 
CCCCC/C=C\C/C=C\C/C=C\C/C=C\CCCC(=O)O[C@H](COC/C=C/CCCCCCCCCCCCCCC)COP(=O)(O)OCCN [KIT-020, 2-((hydroxy((R)-2-(((5Z,8Z,11Z,14Z)-icosa-5,8,11,14-tetraenoyl)oxy)-3-(((E)-octadec-2-en-1-yl)oxy)propoxy)phosphoryl)oxy)ethane-1-ammonium 2,2,2-trifluoroacetate] | significantly suppressed | suppressed | ameliorated |  | improvement in memory retention |  |  |  | suppressed | suppressed | suppressed | suppressed | significantly suppressed | significantly reduced
CCCCCCCC/C=C\CCCCCCCC(=O)O[C@H](COC/C=C/CCCCCCCCCCCCCCC)COP(=O)(O)OCCN [KIT-019, 2-((hydroxy((R)-3-3-(((E)-octadec-2-en-1-yl)oxy)-2-(oleoyloxy)propyl)phosphoryl)oxy)ethane-1-ammonium 2,2,2-trifluoroacetate] |  |  | ameliorated |  |  |  |  |  |  |  |  |  | significantly suppressed | significantly reduced
